Laboratory results published in ChEMBL document CHEMBL3045829, “Structure- and species-dependent insecticidal effects of neo-clerodane diterpenes” (J Agric Food Chem, 2000).

Key:
Myzus persicae [1] = assay: Potency index, ratio of antifeedant activity of farnesol to compound against Myzus persicae (green peach aphid) assessed feeding settling inhibition index at 50 ug/cm2; assay type: functional
Myzus persicae [2] = assay: Antifeedant activity against Myzus persicae (green peach aphid) assessed feeding settling inhibition index at 50 ug/cm2 relative to untreated control; assay type: functional
Spodoptera littoralis [3] = assay: Nutritional effect in Spodoptera littoralis L6 larvae assessed as food consumption at 20 ug/insect administered through oral cannulation after 72 hr relative to untreated control; assay type: functional
Spodoptera littoralis [4] = assay: Nutritional effect in Spodoptera littoralis L6 larvae assessed as weight gain at 20 ug/insect administered through oral cannulation after 72 hr relative to untreated control; assay type: functional
Spodoptera littoralis [5] = assay: Antifeedant activity against Spodoptera littoralis assessed as inhibition of feeding at 50 ug/cm2 by choice feeding assay relative to untreated control; assay type: functional
Spodoptera littoralis [6] = assay: Antifeedant activity against Spodoptera littoralis assessed as inhibition of feeding by choice feeding assay relative to untreated control; assay type: functional, organism-based
[7] = tested on: Leptinotarsa decemlineata; assay: Toxicity against Leptinotarsa decemlineata assessed as insect mortality administered through hemolymph injection after 72 hr; assay type: functional; set-up: concentration or dose not given beside the values
[8] = tested on: Leptinotarsa decemlineata; assay: Antifeedant activity against Leptinotarsa decemlineata assessed as inhibition of feeding by no-choice feeding assay relative to untreated control; assay type: functional, organism-based
[9] = tested on: Leptinotarsa decemlineata; assay: Antifeedant activity against Leptinotarsa decemlineata assessed as inhibition of feeding at 50 ug/cm2 by no-choice feeding assay relative to untreated control; assay type: functional
[10] = tested on: Leptinotarsa decemlineata; assay: Antifeedant activity against Leptinotarsa decemlineata assessed as inhibition of feeding by choice feeding assay relative to untreated control; assay type: functional, organism-based
[11] = tested on: Leptinotarsa decemlineata; assay: Antifeedant activity against Leptinotarsa decemlineata assessed as inhibition of feeding at 50 ug/cm2 by choice feeding assay relative to untreated control; assay type: functional

With C=C1CCC[C@@H]2[C@@](C)(C/C=C3/CC(OC(C)=O)OC3OC(C)=O)[C@H](C)CC[C@@]12C (stereo partly specified) the “fold change (FC)” value (Myzus persicae [1]) was 2, the inhibition at 50 µg/cm2 (Myzus persicae [2]) was 43.1% and the Activity (Spodoptera littoralis [3]) was 110.26%. It also gave an Activity (Spodoptera littoralis [4]) of 110.18%, an inhibition at 50 µg/cm2 (Spodoptera littoralis [5]) of 11.2% and an EC50 (Spodoptera littoralis [6]) of over 50 microg/cm2. The mortality [7] was 25%, the EC50 [8] was over 50 microg/cm2 and the inhibition at 50 µg/cm2 [9] was 28.8%. For the same compound, the EC50 [10] was over 50 microg/cm2 and the inhibition at 50 µg/cm2 [11] was 33.8%.

C=C1CCC[C@@H]2[C@@](C)(CC(OC(C)=O)/C(=C/COC(C)=O)COC(C)=O)[C@H](C)CC[C@@]12C (stereo partly specified) gave an inhibition at 50 µg/cm2 (Myzus persicae [2]) of 19.7%, an Activity (Spodoptera littoralis [3]) of 93.02% and an Activity (Spodoptera littoralis [4]) of 104.75%. The inhibition at 50 µg/cm2 (Spodoptera littoralis [5]) was 18.4%, the EC50 (Spodoptera littoralis [6]) was over 50 microg/cm2 and the mortality [7] was 32%. It also gave an EC50 [8] of over 50 microg/cm2, an inhibition at 50 µg/cm2 [9] of 11.6% and an EC50 [10] of over 50 microg/cm2. It also gave an inhibition at 50 µg/cm2 [11] of 38.5%.

With C=C1CCC[C@@H]2[C@@](C)(CC(O)/C(=C/COC(C)=O)COC(C)=O)[C@H](C)CC[C@@]12C (stereo partly specified) the “fold change (FC)” value (Myzus persicae [1]) was 2, the inhibition at 50 µg/cm2 (Myzus persicae [2]) was 48.2% and the Activity (Spodoptera littoralis [3]) was 88.33%. For the same compound, the Activity (Spodoptera littoralis [4]) was 106.65%, the inhibition at 50 µg/cm2 (Spodoptera littoralis [5]) was 42.5% and the EC50 (Spodoptera littoralis [6]) was over 50 microg/cm2. For the same compound, the mortality [7] was 26%, the EC50 [8] was over 50 microg/cm2 and the inhibition at 50 µg/cm2 [9] was 22.6%. The EC50 [10] was over 50 microg/cm2 and the inhibition at 50 µg/cm2 [11] was 61.4%.

In the case of C=C1CCC[C@@H]2[C@@](C)(C/C=C(\CC=O)C(C)=O)[C@H](C)CC[C@@]12C, the “fold change (FC)” value (Myzus persicae [1]) is reported as 2, the inhibition at 50 µg/cm2 (Myzus persicae [2]) is reported as 45.6% and the Activity (Spodoptera littoralis [3]) is reported as 92.7%. The Activity (Spodoptera littoralis [4]) was 104.33%, the inhibition at 50 µg/cm2 (Spodoptera littoralis [5]) was 14.7% and the EC50 (Spodoptera littoralis [6]) was over 50 microg/cm2. The mortality [7] was 26%, the EC50 [8] was 7.7 microg/cm2 and the inhibition at 50 µg/cm2 [9] was 98.9%. It also gave an EC50 [10] of 12.8 microg/cm2 and an inhibition at 50 µg/cm2 [11] of 89.9%.

CC(=O)OC1C/C(=C/C[C@@]2(C)[C@H](C)CC[C@]3(C)[C@@H]2CCC[C@@]32CO2)C(OC(C)=O)O1 (stereo partly specified) showed an Activity (Spodoptera littoralis [3]) of 55.54%, an Activity (Spodoptera littoralis [4]) of 26.37% and an inhibition at 50 µg/cm2 (Spodoptera littoralis [5]) of 73.9%. It also gave a mortality [7] of 42%, an inhibition at 50 µg/cm2 [9] of 73.3% and an inhibition at 50 µg/cm2 [11] of 91.2%.

With CC(=O)OC/C=C(\COC(C)=O)C(C[C@@]1(C)[C@H](C)CC[C@]2(C)[C@@H]1CCCC21CO1)OC(C)=O (stereo partly specified) the inhibition at 50 µg/cm2 (Myzus persicae [2]) was 26.3%, the Activity (Spodoptera littoralis [3]) was 39.74% and the Activity (Spodoptera littoralis [4]) was 31.03%. For the same compound, the inhibition at 50 µg/cm2 (Spodoptera littoralis [5]) was 17.9%, the EC50 (Spodoptera littoralis [6]) was over 50 microg/cm2 and the mortality [7] was 50%. The EC50 [8] was over 50 microg/cm2, the inhibition at 50 µg/cm2 [9] was 40.7% and the EC50 [10] was 6.4 microg/cm2. The inhibition at 50 µg/cm2 [11] was 96.6%.

CC(=O)OC/C=C(\COC(C)=O)C(C[C@@]1(C)[C@H](C)CC[C@]2(C)[C@@H]1CCCC2(O)CO)OC(C)=O (stereo partly specified) showed an Activity (Spodoptera littoralis [3]) of 38.19%, an Activity (Spodoptera littoralis [4]) of 29.72% and an inhibition at 50 µg/cm2 (Spodoptera littoralis [5]) of 32.6%. It also gave an EC50 (Spodoptera littoralis [6]) of over 50 microg/cm2, a mortality [7] of 50% and an inhibition at 50 µg/cm2 [9] of 86.5%. It also gave an inhibition at 50 µg/cm2 [11] of 97.1%.

CC(=O)OC/C=C(\COC(C)=O)[C@@H](C[C@@]1(C)[C@H](C)CC[C@@]2(C)C(C)=CCC[C@H]12)OC(C)=O was tested, and the inhibition at 50 µg/cm2 (Myzus persicae [2]) was 33.5%, the Activity (Spodoptera littoralis [3]) was 40.02% and the Activity (Spodoptera littoralis [4]) was 30.69%. The inhibition at 50 µg/cm2 (Spodoptera littoralis [5]) was 28.1%, the EC50 (Spodoptera littoralis [6]) was over 50 microg/cm2 and the mortality [7] was 8%. For the same compound, the EC50 [8] was over 50 microg/cm2, the inhibition at 50 µg/cm2 [9] was 35.5% and the EC50 [10] was over 50 microg/cm2. For the same compound, the inhibition at 50 µg/cm2 [11] was 31.4%.

With C=C1CCC[C@@H]2[C@@](C)(C/C=C(/C=O)CC=O)[C@H](C)CC[C@@]12C [E-ISOLINARIDIAL] the “fold change (FC)” value (Myzus persicae [1]) was 2, the inhibition at 50 µg/cm2 (Myzus persicae [2]) was 44.3% and the Activity (Spodoptera littoralis [3]) was 95.56%. It also gave an Activity (Spodoptera littoralis [4]) of 108.22%, an inhibition at 50 µg/cm2 (Spodoptera littoralis [5]) of 23.3% and an EC50 (Spodoptera littoralis [6]) of over 50 microg/cm2. It also gave a mortality [7] of 0%, an EC50 [8] of 8.5 microg/cm2 and an inhibition at 50 µg/cm2 [9] of 90.7%. The EC50 [10] was 10.5 microg/cm2 and the inhibition at 50 µg/cm2 [11] was 90.1%.

With CC(C)=CCC/C(C)=C/CC/C(C)=C/CO [FARNESOL] the inhibition at 50 µg/cm2 (Myzus persicae [2]) was 90.6%.

In the case of C[C@@H]1CC[C@@H]2C(C)(C)C[C@]3(C)CC=C[C@]123 [SILPHINENE], the mortality [7] is reported as 24%, the EC50 [8] is reported as 2.7 microg/cm2 and the EC50 [10] is reported as 0.27 microg/cm2.
